Values joined by “and” are separate entries in the source; they are usually repeats but may differ in a detail not shown here. Equal entries are not always repeated. Toxic doses and inconclusive results are not listed.
Test system: P388 leukemia ip, CD2F1 mice, survival T/C
Test: NCI In Vivo Anticancer Drug Screen. Data for tumor model P388 Leukemia (intraperitoneal) in CD2F1 (CDF1) mice
Details: endpoint: median survival time, higher = longer survival
In short: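 Mice carrying the transplanted tumor received test compound or vehicle. Survival was recorded in each group, and the value is the treated-group measurement divided by that of the vehicle-treated control group.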

[1] = dose: 60.0 mg/kg/injection, schedule: Q01DX005 (ip), vehicle: saline with Tween-80
[2] = dose: 120.0 mg/kg/injection, schedule: Q01DX005 (ip), vehicle: saline with Tween-80
[3] = dose: 240.0 mg/kg/injection, schedule: Q01DX005 (ip), vehicle: saline with Tween-80
[4] = dose: 50.0 mg/kg/injection, schedule: Q01DX005 (ip), vehicle: Klucel (hydroxypropylcellulose) (HPC)
[5] = dose: 50.0 mg/kg/injection, schedule: Q01DX005 (ip), vehicle: saline with Tween-80
[6] = dose: 100.0 mg/kg/injection, schedule: Q01DX005 (ip), vehicle: saline with Tween-80
[7] = dose: 200.0 mg/kg/injection, schedule: Q01DX005 (ip), vehicle: saline with Tween-80
[8] = dose: 50.0 mg/kg/injection, schedule: Q01DX009 (ip), vehicle: Klucel (hydroxypropylcellulose) (HPC)
[9] = dose: 100.0 mg/kg/injection, schedule: Q01DX009 (ip), vehicle: Klucel (hydroxypropylcellulose) (HPC)
[10] = dose: 50.0 mg/kg/injection, schedule: Q01DX009 (ip), vehicle: saline
[11] = dose: 6.25 mg/kg/injection, schedule: Q01DX005 (ip), vehicle: Klucel (hydroxypropylcellulose) (HPC)
[12] = dose: 12.5 mg/kg/injection, schedule: Q01DX005 (ip), vehicle: Klucel (hydroxypropylcellulose) (HPC)
[13] = dose: 25.0 mg/kg/injection, schedule: Q01DX005 (ip), vehicle: Klucel (hydroxypropylcellulose) (HPC)

CCOC(=O)N(CCCl)N=O
T/C (dose: 0.31 mg/kg/injection, schedule: Q01DX009 (ip), vehicle: saline with Tween-80): 114 % of control
T/C (dose: 0.62 mg/kg/injection, schedule: Q01DX009 (ip), vehicle: saline with Tween-80): 118 % of control
T/C (dose: 2.5 mg/kg/injection, schedule: Q01DX009 (ip), vehicle: saline with Tween-80): 96 % of control

O=S(=O)(O)c1ccc(/C2=c3\cc/c([n-]3)=C(\c3ccc(S(=O)(=O)O)cc3)c3ccc([n-]3)/C(c3ccc(S(=O)(=O)O)cc3)=c3/cc/c([n-]3)=C(\c3ccc(S(=O)(=O)O)cc3)c3ccc2[n-]3)cc1.[Zn]
T/C (dose: 0.98 mg/kg/injection, schedule: Q01DX009 (ip), vehicle: saline with Tween-80): 103 % of control and 111 % of control
T/C (dose: 1.95 mg/kg/injection, schedule: Q01DX009 (ip), vehicle: saline with Tween-80): 100 % of control and 104 % of control
T/C (dose: 3.9 mg/kg/injection, schedule: Q01DX009 (ip), vehicle: saline with Tween-80): 99 % of control and 114 % of control
T/C (dose: 7.8 mg/kg/injection, schedule: Q01DX009 (ip), vehicle: saline with Tween-80): 114 % of control
T/C (dose: 15.62 mg/kg/injection, schedule: Q01DX009 (ip), vehicle: saline with Tween-80): 100 % of control and 112 % of control

O=C(COc1ccccc1)NC(=S)Nc1nccs1
T/C [1]: 96 % of control
T/C [2]: 93 % of control
T/C [3]: 102 % of control

O=C(O)c1[nH]c(=O)[nH]c(=O)c1[N+](=O)[O-]
T/C [4]: 93 % of control
T/C (dose: 100.0 mg/kg/injection, schedule: Q01DX005 (ip), vehicle: Klucel (hydroxypropylcellulose) (HPC)): 98 % of control
T/C (dose: 200.0 mg/kg/injection, schedule: Q01DX005 (ip), vehicle: Klucel (hydroxypropylcellulose) (HPC)): 98 % of control

NC(=O)CCS(=O)(=O)Cc1ccccc1
T/C [5]: 98 % of control
T/C [6]: 95 % of control
T/C [7]: 93 % of control

CC(C)(C)C(N)=S
T/C (dose: 50.0 mg/kg/injection, schedule: Q01DX005 (ip), vehicle: saline): 103 % of control
T/C (dose: 100.0 mg/kg/injection, schedule: Q01DX005 (ip), vehicle: saline): 101 % of control
T/C (dose: 200.0 mg/kg/injection, schedule: Q01DX005 (ip), vehicle: saline): 101 % of control

CCCCCCCCCCCC(=O)/C=C/c1ccc(Cl)c(Cl)c1
T/C [8]: 102 % of control
T/C [9]: 90 % of control

CCC1(C#N)N=C(c2ccccc2)c2ccccc2N1C(=O)OC (centres undefined)
T/C [1]: 96 % of control
T/C [2]: 98 % of control
T/C [3]: 98 % of control

CCN(CC)CCCCCNc1cc(Cl)c(Cl)cc1[N+](=O)[O-]
T/C (dose: 12.5 mg/kg/injection, schedule: Q01DX009 (ip), vehicle: saline): 99 % of control
T/C (dose: 25.0 mg/kg/injection, schedule: Q01DX009 (ip), vehicle: saline): 95 % of control
T/C [10]: 107 % of control

Cc1c(C#N)c(N)nc2c(C(N)=O)nsc12
T/C [11]: 98 % of control
T/C [12]: 102 % of control
T/C [13]: 95 % of control
T/C [4]: 91 % of control

CCC(=O)Cc1nc2n(c1O)/C(=N/C(=O)Nc1ccc(Cl)cc1)N=N2
T/C [1]: 100 % of control
T/C [2]: 98 % of control
T/C [3]: 98 % of control

Cc1cc(C)nc(NS(=O)(=O)c2ccc(NC(=S)Nc3ccccc3)cc2)n1
T/C [5]: 96 % of control
T/C [6]: 90 % of control
T/C [7]: 91 % of control

O=c1[nH]c2cc(Cl)ccc2c(=O)o1
T/C [8]: 112 % of control
T/C [9]: 100 % of control
T/C (dose: 200.0 mg/kg/injection, schedule: Q01DX009 (ip), vehicle: Klucel (hydroxypropylcellulose) (HPC)): 103 % of control

Cc1nn(-c2ccccc2)c(=O)n2c(-n3c(C)nn(-c4ccccc4)c3=O)nnc12
T/C (dose: 100.0 mg/kg/injection, schedule: Q01DX001 (ip), vehicle: saline with Tween-80): 102 % of control
T/C (dose: 200.0 mg/kg/injection, schedule: Q01DX001 (ip), vehicle: saline with Tween-80): 105 % of control
T/C (dose: 400.0 mg/kg/injection, schedule: Q01DX001 (ip), vehicle: saline with Tween-80): 99 % of control

O=C1CC2C(O)OC(O)C(C1)N2C(=O)OCC(Cl)(Cl)Cl (centres undefined)
T/C [11]: 106 % of control
T/C [12]: 106 % of control
T/C [13]: 114 % of control

CSC(CNC(=O)N(CCCl)N=O)n1cc(F)c(=O)[nH]c1=O (centres undefined)
T/C (dose: 3.12 mg/kg/injection, schedule: Q04DX003 (ip), vehicle: saline with Tween-80): 161 % of control
T/C (dose: 6.25 mg/kg/injection, schedule: Q04DX003 (ip), vehicle: saline with Tween-80): 158 % of control and 171 % of control
T/C (dose: 12.5 mg/kg/injection, schedule: Q04DX003 (ip), vehicle: saline with Tween-80): 220 % of control and 264 % of control
T/C (dose: 25.0 mg/kg/injection, schedule: Q04DX003 (ip), vehicle: saline with Tween-80): 266 % of control and 285 % of control
T/C (dose: 50.0 mg/kg/injection, schedule: Q04DX003 (ip), vehicle: saline with Tween-80): 275 % of control and 285 % of control
T/C (dose: 100.0 mg/kg/injection, schedule: Q04DX003 (ip), vehicle: saline with Tween-80): 110 % of control and 123 % of control

CC(C)CC(=O)O[C@@H]1OC=C(COC2OC(CO)C(O)C(O)C2O)[C@H]2CC(=O)[C@@H](C)[C@@H]12 (some centres undefined)
T/C (dose: 8.0 mg/kg/injection, schedule: Q01DX005 (ip), vehicle: saline): 118 % of control
T/C (dose: 16.0 mg/kg/injection, schedule: Q01DX005 (ip), vehicle: saline): 116 % of control
T/C (dose: 32.0 mg/kg/injection, schedule: Q01DX005 (ip), vehicle: saline): 107 % of control
T/C (dose: 64.0 mg/kg/injection, schedule: Q01DX005 (ip), vehicle: saline): 110 % of control

CCCCCC(=O)O[C@H]1CC[C@@H]2[C@H]1[C@@H]1CCC=C1C2(C)C
T/C (dose: 100.0 mg/kg/injection, schedule: Q01DX001 (ip), vehicle: Klucel (hydroxypropylcellulose) (HPC)): 97 % of control
T/C (dose: 200.0 mg/kg/injection, schedule: Q01DX001 (ip), vehicle: Klucel (hydroxypropylcellulose) (HPC)): 99 % of control
T/C (dose: 400.0 mg/kg/injection, schedule: Q01DX001 (ip), vehicle: Klucel (hydroxypropylcellulose) (HPC)): 100 % of control

O=C(OCCO)c1ccccc1-c1c2cc3cc(Br)c(O)c(Br)c3oc-2c(Br)c(=O)c1Br
T/C (dose: 60.0 mg/kg/injection, schedule: Q01DX005 (ip), vehicle: saline): 100 % of control
T/C (dose: 120.0 mg/kg/injection, schedule: Q01DX005 (ip), vehicle: saline): 94 % of control
T/C (dose: 240.0 mg/kg/injection, schedule: Q01DX005 (ip), vehicle: saline): 105 % of control

O=C(O)c1cnc2cc(Cl)ccc2n1
T/C (dose: 25.0 mg/kg/injection, schedule: Q01DX009 (ip), vehicle: saline with Tween-80): 100 % of control
T/C (dose: 50.0 mg/kg/injection, schedule: Q01DX009 (ip), vehicle: saline with Tween-80): 100 % of control
T/C (dose: 100.0 mg/kg/injection, schedule: Q01DX009 (ip), vehicle: saline with Tween-80): 95 % of control

CC(=O)c1c(O)c2ccccc2c2nc3ccccc3nc12
T/C [10]: 96 % of control
T/C (dose: 100.0 mg/kg/injection, schedule: Q01DX009 (ip), vehicle: saline): 91 % of control
T/C (dose: 200.0 mg/kg/injection, schedule: Q01DX009 (ip), vehicle: saline): 91 % of control

COC(=O)NC(=Nc1cccc(C(=O)c2ccc3nc(NC(=O)OC)[nH]c3c2)c1)NC(=O)OC
T/C [2]: 90 % of control

C/C=C/C[P+](C)(c1ccccc1)c1ccccc1
T/C (dose: 0.75 mg/kg/injection, schedule: Q01DX009 (ip), vehicle: saline): 104 % of control

CC(C)NC(=O)OCc1c(COC(=O)NC(C)C)c(-c2ccc(Cl)cc2)n2c1CCC2
T/C (dose: 3.12 mg/kg/injection, schedule: Q01DX005 (ip), vehicle: distilled water + Tween-80): 161 % of control
T/C (dose: 6.25 mg/kg/injection, schedule: Q01DX005 (ip), vehicle: distilled water + Tween-80): 152 % of control
T/C (dose: 12.5 mg/kg/injection, schedule: Q01DX005 (ip), vehicle: distilled water + Tween-80): 186 % of control and 190 % of control
T/C (dose: 25.0 mg/kg/injection, schedule: Q01DX005 (ip), vehicle: distilled water + Tween-80): 186 % of control
T/C (dose: 50.0 mg/kg/injection, schedule: Q01DX005 (ip), vehicle: distilled water + Tween-80): 110 % of control and 93 % of control

[Cl][Hg][Cl]
T/C (dose: 0.94 mg/kg/injection, schedule: Q01DX005 (ip), vehicle: saline): 95 % of control
T/C (dose: 1.88 mg/kg/injection, schedule: Q01DX005 (ip), vehicle: saline): 101 % of control

Cc1onc(-c2c(F)cccc2Cl)c1C(=O)Nc1cc2cc([N+](=O)[O-])ccc2oc1=O
T/C [1]: 95 % of control
T/C [2]: 97 % of control
T/C [3]: 92 % of control

CCOC(=O)c1c(-c2ccccc2)nn2c1COC(=O)C2
T/C [5]: 103 % of control
T/C [6]: 99 % of control
T/C [7]: 98 % of control

Reference: PubChem BioAssay AID330 (DTP/NCI, 2004)
